System: Tel-23 (DNA telomeric G4) (DNA, G4) TAGGGTTAGGGTTAGGGTTAGGG
Experiment: UV melting at 290 nm
Conditions: K+ (KCl 50 mM), NaCac 2.5 mM, pH 6.5, G4 0.472 µM

| SMILES | ΔTm (CG4/CAu = 0.5, derived from two Tm (60 and 57)) [°C] | ΔTm (CG4/CAg = 1.4, derived from two Tm (60 and 60)) [°C] |
| --- | --- | --- |
| CCN1[C]N(Cc2c3ccccc3cc3ccccc23)C=C1.CCN1[C]N(Cc2c3ccccc3cc3ccccc23)C=C1.[Au+] | -3 |  |
| CCN1[C]N(Cc2c3ccccc3cc3ccccc23)C=C1.CCN1[C]N(Cc2c3ccccc3cc3ccccc23)C=C1.[Ag+] |  | 0 |
